# In PMC9499365, “Stereoselective Synthesis and Application of Gibberellic Acid-Derived Aminodiols” (International Journal of Molecular Sciences, 2022):
# Tests used:
# [1] = system: HeLa cells (cervical cancer); test: MTT antiproliferative assay, HeLa; type: cell-based, human; settings: Homo sapiens, 72 h, read-out: Growth inhibition (%) ± SEM
# Experimental: (§1) The in vitro antiproliferative activities of the synthesized aminodiols 4–38 against a panel of different human cancer cell lines of gynecological origin, including cervical (SiHA and HeLa), breast (MCF7 and MDA-MB-231), and ovary (A2780) cancers were assayed by the MTT method. […] Cisplatin, a clinically applied anticancer agent, was used as a reference compound and the results are summarized in Figure 3 and Table S1 in Supporting Information. […] On the other hand, none of the prepared azole derivatives exerted relevant activity.
# (§2) The growth-inhibitory effects of the gibberellic acid-based aminodiol derivatives were determined by a standard MTT (3-(4,5-dimethylthiazol-2-yl)-2,5-diphenyltetrazolium bromide) assay on a panel containing five cell lines, including Hela and Siha (cervical cancers); MDA-MB-231 and MCF-7 (breast cancers); and A2780 ovarian cancer cells. The most promising agents were additionally tested against NIH/3T3 mouse embryo fibroblast cells. All cell lines were purchased from the European Collection of Cell Cultures (Salisbury, UK) except SiHa, which was obtained from the American Tissue Culture Collection (Manassas, VA, USA). The cells were maintained in minimal essential medium supplemented with 10% fetal bovine serum, 1% non-essential amino acids, and 1% penicillin-streptomycin at 37 °C in a humidified atmosphere containing 5% CO2. All media and supplements were obtained from Lonza Group Ltd., (Basel, Switzerland). Cancer cells were seeded into 96-well plates (5000 cells/well), after an overnight incubation the test compound was added in 2 different concentrations (10 µM and 30 µM) and incubated for another 72 h under cell-culturing conditions. Then, 20 μL of 5 mg/mL MTT solution was added to each well and incubated for a further 4 h. The medium was removed, and the precipitated formazan crystals were dissolved in DMSO during 60 min of shaking at 37 °C. As the final step, the absorbance was measured at 545 nm by using a microplate reader (SPECTROStar Nano, BMG Labtech, Offenburg, Germany). Untreated cells were included as controls. […] These agents were additionally tested against NIH/3T3 fibroblasts to obtain results about their cancer selectivity. Two independent experiments were performed with five wells for each condition. Cisplatin (Ebewe GmbH, Unterach, Austria), a clinically used anticancer agent, was used as a positive control. Calculations were performed utilizing the GraphPad Prism 5.01 software (GraphPad Software Inc., San Diego, CA, USA).
# [2] = system: SiHa cells (cervical cancer); test: MTT antiproliferative assay, SiHa; type: cell-based, human; settings: Homo sapiens, 72 h, read-out: Growth inhibition (%) ± SEM
# Experimental: as §1, §2
# [3] = system: MDA-MB-231 cells (breast cancer); test: MTT antiproliferative assay, MDA-MB-231; type: cell-based, human; settings: Homo sapiens, 72 h, read-out: Growth inhibition (%) ± SEM; for inhibition at 10 µM: MDA-MB-231, 10 μM; for inhibition at 30 µM: MDA-MB-231, 30 μM
# Experimental: as §1, §2
# [4] = system: A2780 ovarian cancer cells; test: MTT antiproliferative assay, A2780; type: cell-based, human; settings: Homo sapiens, 72 h, read-out: Growth inhibition (%) ± SEM; for inhibition at 10 µM: A2780, 10 μM; for inhibition at 30 µM: A2780, 30 μM
# Experimental: as §1, §2
Compound,inhibition at 10 µM [1] [%],inhibition at 30 µM [1] [%],inhibition at 10 µM [2] [%],inhibition at 30 µM [2] [%],inhibition at 10 µM [3] [%],inhibition at 30 µM [3] [%],inhibition at 10 µM [4] [%],inhibition at 30 µM [4] [%],melting point [°C]
"CCOC(=O)[C@H]1c2c(C)cccc2[C@H]2CC[C@]3(O)C[C@@]21C[C@]3(O)CN[C@@H](C)c1ccccc1 [Compound 5, Ethyl (4bS,7S,8S,9aR,10R)-7,8-dihydroxy-1-methyl-8-((((S)-1-phenylethyl)amino)methyl)-4b,6,7,8,9,10-hexahydro-5H-7,9a-methanobenzo[a]azulene-10 carboxylate]",22.3 ± 5.01,51 ± 9.48,< 20,48.3 ± 4.04,< 20,64.9 ± 1.91,30.42 ± 0.22,51.6 ± 2.69,
"C#CCNC[C@@]1(O)C[C@]23C[C@@]1(O)CC[C@@H]2c1cccc(C)c1[C@@H]3C(=O)OCC [Compound 20, Ethyl (4bS,7S,8S,9aR,10R)-7,8-dihydroxy-1-methyl-8-((prop-2-yn-1-ylamino)methyl)-4b,6,7,8,9,10-hexahydro-5H-7,9a-methanobenzo[a]azulene-10-carboxylate]",,,,,,,,,111 to 112
"CCOC(=O)[C@H]1c2c(C)cccc2[C@H]2CC[C@]3(O)C[C@@]21C[C@]3(O)CN1CCCCC1 [Compound 21, Ethyl (4bS,7S,8S,9aR,10R)-7,8-dihydroxy-1-methyl-8-(piperidin-1-ylmethyl)-4b,6,7,8,9,10-hexahydro-5H-7,9a-methanobenzo[a]azulene-10-carboxylate]",,,,,,,,,84 to 86
"CCOC(=O)[C@H]1c2c(C)cccc2[C@H]2CC[C@]3(O)C[C@@]21C[C@]3(O)CN(Cc1ccccc1)Cc1ccccc1 [Compound 17, Ethyl (4bS,7S,8S,9aR,10R)-8-((dibenzylamino)methyl)-7,8-dihydroxy-1-methyl-4b,6,7,8,9,10-hexahydro-5H-7,9a-methanobenzo[a]azulene-10-carboxylate]",40.8 ± 1.19,45.6 ± 1.48,< 20,47.1 ± 1.74,< 20,36.9 ± 1.58,< 20,78.9 ± 1.12,101.4 to 103
"CCOC(=O)[C@H]1c2c(C)cccc2[C@H]2CC[C@]3(O)C[C@@]21C[C@]3(O)CN[C@@H](CC)c1ccccc1 [Compound 8, Ethyl (4bS,7S,8S,9aR,10R)-7,8-dihydroxy-1-methyl-8-((((S)-1-phenylpropyl)amino)methyl)-4b,6,7,8,9,10-hexahydro-5H-7,9a-methanobenzo[a]azulene-10-carboxylate]",27.5 ± 0.41,98.05 ± 0.07,29.7 ± 1.54,98.38 ± 0.44,< 20,97.52 ± 0.67,39.5 ± 1.27,96.38 ± 0.13,114 to 115
"CCOC(=O)[C@@H]1c2c(C)cccc2C2CC[C@]3(O)C[C@@]21C[C@]3(O)CNCc1cccc2ccccc12 (stereo partly drawn) [Compound 38, Ethyl (7S,8S,9aR,10S)-7,8-dihydroxy-1-methyl-8-(((naphthalen-1-ylmethyl)amino)methyl)-4b,6,7,8,9,10-hexahydro-5H-7,9a-methanobenzo[a]azulene-10-carboxylate]",26.9 ± 0.53,96.5 ± 1.72,27.9 ± 0.93,97.63 ± 0.8,< 20,96.17 ± 0.76,28.6 ± 2.66,95.23 ± 0.66,61 to 65
"CCOC(=O)[C@H]1c2c(C)cccc2[C@H]2CC[C@]3(O)C[C@@]21C[C@]3(O)CNCc1ccc(F)cc1 [Compound 9, Ethyl (4bS,7S,8S,9aR,10R)-8-(((4-fluorobenzyl)amino)methyl)-7,8-dihydroxy-1-methyl-4b,6,7,8,9,10-hexahydro-5H-7,9a-methanobenzo[a]azulene-10-carboxylate]",< 20,30.6 ± 4.19,26.6 ± 1.02,53.6 ± 1.92,< 20,< 20,< 20,45.8 ± 1.62,253 to 254
"CCOC(=O)[C@H]1c2c(C)cccc2[C@H]2CC[C@]3(O)C[C@@]21C[C@]3(O)CN[C@@H](C)c1ccc(F)cc1 [Compound 10, Ethyl (4bS,7S,8S,9aR,10R)-8-((((S)-1-(4-fluorophenyl)ethyl)amino)methyl)-7,8-dihydroxy-1-methyl-4b,6,7,8,9,10-hexahydro-5H-7,9a-methanobenzo[a]azulene-10-carboxylate]",38.5 ± 2.02,97.93 ± 0.11,39.1 ± 1.82,97.08 ± 0.08,31.2 ± 0.77,94.5 ± 1.05,22.2 ± 1.93,96.46 ± 0.76,84 to 86
"CCOC(=O)[C@H]1c2c(C)cccc2[C@H]2CC[C@]3(O)C[C@@]21C[C@]3(O)Cn1ccnn1 [Compound 29, Ethyl (4bS,7S,8S,9aR,10R)-8-((1H-1,2,3-triazol-1-yl)methyl)-7,8-dihydroxy-1-methyl-4b,6,7,8,9,10-hexahydro-5H-7,9a-methanobenzo[a]azulene-10-carboxylate]",,,,,,,,,90 to 92
"CCOC(=O)[C@@H]1c2c(C)cccc2C2CC[C@]3(O)C[C@@]21C[C@]3(O)CN[C@@H](C)c1cccc2ccccc12 (stereo partly drawn) [Compound 36, Ethyl (7S,8S,9aR,10S)-7,8-dihydroxy-1-methyl-8-((((S)-1-(naphthalen-1-yl)ethyl)amino)methyl)-4b,6,7,8,9,10-hexahydro-5H-7,9a-methanobenzo[a]azulene-10-carboxylate]",31.1 ± 2.01,95.4 ± 2.87,31.4 ± 1.21,97.69 ± 0.58,46.9 ± 1.05,95.53 ± 0.83,46.7 ± 1.46,94.81 ± 0.11,
"CCOC(=O)[C@@H]1c2c(C)cccc2C2CC[C@]3(O)C[C@@]21C[C@]3(O)CN[C@H](C)c1cccc2ccccc12 (stereo partly drawn) [Compound 37, Ethyl (7S,8S,9aR,10S)-7,8-dihydroxy-1-methyl-8-((((R)-1-(naphthalen-1-yl)ethyl)amino)methyl)-4b,6,7,8,9,10-hexahydro-5H-7,9a-methanobenzo[a]azulene-10-carboxylate]",35.8 ± 0.42,97.35 ± 0.69,34.5 ± 1.89,97.58 ± 0.47,< 20,96.64 ± 0.17,35.9 ± 0.89,96 ± 0.99,
"CCOC(=O)[C@H]1c2c(C)cccc2[C@H]2CC[C@]3(O)C[C@@]21C[C@]3(O)CNC(C)C [Compound 19, Ethyl (4bS,7S,8S,9aR,10R)-7,8-dihydroxy-8-((isopropylamino)methyl)-1-methyl-4b,6,7,8,9,10-hexahydro-5H-7,9a-methanobenzo[a]azulene-10-carboxylate]",,,,,,,,,102 to 103
"CCOC(=O)[C@H]1c2c(C)cccc2[C@H]2CC[C@]3(O)C[C@@]21C[C@]3(O)CN1CCN(C)CC1 [Compound 22, Ethyl (4bS,7S,8S,9aR,10R)-7,8-dihydroxy-1-methyl-8-((4-methylpiperazin-1-yl)methyl)-4b,6,7,8,9,10-hexahydro-5H-7,9a-methanobenzo[a]azulene-10-carboxylate]",,,,,,,,,42 to 45
"CCOC(=O)[C@H]1c2c(C)cccc2[C@H]2CC[C@]3(O)C[C@@]21C[C@]3(O)Cn1cncn1 [Compound 28, Ethyl (4bS,7S,8S,9aR,10R)-8-((1H-1,2,4-triazol-1-yl)methyl)-7,8-dihydroxy-1-methyl-4b,6,7,8,9,10-hexahydro-5H-7,9a-methanobenzo[a]azulene-10-carboxylate]",,,,,,,,,87 to 89
